Measured values from patent US9296741B2, “Bromodomain inhibitors” (priority 2012, dated 2016).

How the values were obtained:
[1] = Rat liver microsome stability assay; assay type: in vitro ADME; conditions: rat liver microsomes (male Sprague-Dawley), 0.5 μM test compound, 0.25 mg/mL microsomal protein, pH 7.4, 37° C.; read-out: Stability in rat liver microsomes (t1/2 in minutes)
[2] = Mouse liver microsome stability assay; assay type: in vitro ADME
[3] = Human liver microsome stability assay; assay type: in vitro ADME; conditions: both sexes
[4] = molecular target: human BRD4 first bromodomain (BDI_K57-E168) (Homo sapiens (Human), UniProt O60885); experiment: TR-FRET bromodomain binding assay, BRD4 first bromodomain
[5] = molecular target: human BRD4 second bromodomain (BDII_E352-M457) (Homo sapiens (Human), UniProt O60885); experiment: TR-FRET bromodomain binding assay, BRD4 second bromodomain
[6] = male, CD1, mouse, microsomes, pH 7.4

| SMILES | half-life at 0.5 μM [1] [min] | half-life at 0.5 μM [2, 6] [min] | half-life at 0.5 μM ([3]; human, microsomes, pH 7.4) [min] | Ki [4] [nM] | Ki [5] [nM] | half-life at 0.5 μM ([2]; mouse liver microsomes (male CD1), 0.5 μM test compound, 0.25 mg/mL microsomal protein, pH 7.4, 37° C., read-out: Stability in mouse liver microsomes (t1/2 in minutes)) [min] | half-life at 0.5 μM ([3]; human liver microsomes, 0.5 μM test compound, 0.25 mg/mL microsomal protein, pH 7.4, 37° C., read-out: Stability in human liver microsomes (t1/2 in minutes)) [min] |
| --- | --- | --- | --- | --- | --- | --- | --- |
| Cn1cc(-c2cc(S(C)(=O)=O)ccc2Oc2ccc3c(c2)CCC3)c2cc[nH]c2c1=O [Example 191, 4-[2-(2,3-dihydro-1H-inden-5-yloxy)-5-(methylsulfonyl)phenyl]-6-methyl-1,6-dihydro-7H-pyrrolo[2,3-c]pyridin-7-one] | 6 | 2 | 7 | 17.8 | 8.8 | – | – |
| CCS(=O)(=O)Nc1cc(-c2cn(C)c(=O)c3[nH]ccc23)c(Oc2ccc(F)cc2F)cc1C#N [Example 324, N-[2-cyano-4-(2,4-difluorophenoxy)-5-(6-methyl-7-oxo-6,7-dihydro-1H-pyrrolo[2,3-c]pyridin-4-yl)phenyl]ethanesulfonamide] | > 120 | > 120 | > 120 | 3.2 | 1.2 | – | – |
| Cn1cc(-c2cc(S(C)(=O)=O)ccc2Oc2cccc3nsnc23)c2cc[nH]c2c1=O [Example 171, 4-[2-(2,1,3-benzothiadiazol-4-yloxy)-5-(methylsulfonyl)phenyl]-6-methyl-1,6-dihydro-7H-pyrrolo[2,3-c]pyridin-7-one] | 13 | 9 | 15 | 13.8 | 10.3 | – | – |
| Cn1cc(-c2cc(C3=CCNCC3)ccc2OCC2CC2)c2cc[nH]c2c1=O [Example 340, 4-[2-(cyclopropylmethoxy)-5-(1,2,3,6-tetrahydropyridin-4-yl)phenyl]-6-methyl-1,6-dihydro-7H-pyrrolo[2,3-c]pyridin-7-one] | 4 | – | – | 942 | 1250 | 9 | > 120 |
| C=C(C)c1cc2c(-c3cc(S(C)(=O)=O)ccc3Oc3ccc(F)cc3F)cn(C)c(=O)c2[nH]1 [Example 291, 4-[2-(2,4-difluorophenoxy)-5-(methylsulfonyl)phenyl]-6-methyl-2-(prop-1-en-2-yl)-1,6-dihydro-7H-pyrrolo[2,3-c]pyridin-7-one] | 8 | 16 | 16 | 32.9 | 23.7 | – | – |
| Cn1cc(-c2cc(CC(=O)O)ccc2OCc2ccccc2)c2cc[nH]c2c1=O [Example 35, [4-(benzyloxy)-3-(6-methyl-7-oxo-6,7-dihydro-1H-pyrrolo[2,3-c]pyridin-4-yl)phenyl]acetic acid] | > 120 | 42 | 37 | 661 | 1140 | – | – |

Second part, led by results:

| half-life at 0.5 μM [1] [min] | half-life at 0.5 μM [2, 6] [min] | half-life at 0.5 μM ([3]; human, microsomes, pH 7.4) [min] | Ki [4] [nM] | Ki [5] [nM] | SMILES | half-life at 0.5 μM ([2]; mouse liver microsomes (male CD1), 0.5 μM test compound, 0.25 mg/mL microsomal protein, pH 7.4, 37° C., read-out: Stability in mouse liver microsomes (t1/2 in minutes)) [min] | half-life at 0.5 μM ([3]; human liver microsomes, 0.5 μM test compound, 0.25 mg/mL microsomal protein, pH 7.4, 37° C., read-out: Stability in human liver microsomes (t1/2 in minutes)) [min] |
| --- | --- | --- | --- | --- | --- | --- | --- |
| 21 | 25 | 100 | 2000 | 768 | Cn1cc(-c2cc(C(=O)NCc3ccc(OC(F)(F)F)cc3)ccc2Oc2ccc(F)cc2F)c2cc[nH]c2c1=O [Example 126, 4-(2,4-difluorophenoxy)-3-(6-methyl-7-oxo-6,7-dihydro-1H-pyrrolo[2,3-c]pyridin-4-yl)-N-[4-(trifluoromethoxy)benzyl]benzamide] | – | – |
| 12 | 10 | 19 | 190 | 304 | CN(C)c1ccc(NC(=O)c2ccc(Oc3ccc(F)cc3F)c(-c3cn(C)c(=O)c4[nH]ccc34)c2)cc1 [Example 120, 4-(2,4-difluorophenoxy)-N-[4-(dimethylamino)phenyl]-3-(6-methyl-7-oxo-6,7-dihydro-1H-pyrrolo[2,3-c]pyridin-4-yl)benzamide] | – | – |
| 24 | 5 | 8 | 274 | 77.4 | Cn1cc(-c2cc(C(=O)N3CCC(NC(=O)OC(C)(C)C)CC3)ccc2Oc2ccc(F)cc2F)c2cc[nH]c2c1=O [Example 135, tert-butyl {1-[4-(2,4-difluorophenoxy)-3-(6-methyl-7-oxo-6,7-dihydro-1H-pyrrolo[2,3-c]pyridin-4-yl)benzoyl]piperidin-4-yl}carbamate] | – | – |
